From ChEMBL document CHEMBL1201862, “PubChem BioAssay data set” (2004)
Counter-ions that a name gives are not always drawn.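 Test compounds were applied to cells in 96-well plates for 48 hours at 5 doses. GI50 marks 50% less growth.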 Active and inactive are the calls of the source. Cut-off read from the data, not from the text of the source: active = GI50 up to about 1.1 µM and inactive = higher. Non-standard residues stand in square brackets, D forms with d. Residues, ends and D or L forms follow the SMILES beside them. ξ: configuration not given here. *: point of attachment. ξNMeF = CNC(Cc1ccccc1)C(=O)O; NMeV = CN[C@H](C(=O)O)C(C)C; Boc = CC(C)(C)OC(=O)*; OBn = c1ccc(CO*)cc1

Tests used:
Experiment in all cases: NCI tumour cell line growth inhibition, 48 h
[1] = system: M19-MEL
[2] = system: KM-20L2
[3] = system: XF498
[4] = system: HOP-18
[5] = system: DLD-1
[6] = system: SNB-78
[7] = system: BT-549
[8] = system: T47D
[9] = system: RXF 631

Structure (SMILES) | GI50 [1] | GI50 [2] | GI50 [3] | GI50 [4] | GI50 [5] | GI50 [6] | GI50 [7] | GI50 [8] | GI50 [9]
CC(C)[C@@H](C(=O)N(C)[C@H](C(=O)N1CCC[C@H]1C(=O)OCc1ccccc1)C(C)C)N(C)C(=O)C(Cc1ccccc1)N(C)C(=O)[C@H](NC(=O)OC(C)(C)C)C(C)C (stereo not given in full) (Boc-[dV][ξNMeF][NMeV][NMeV]P-OBn) | > 31.6 µM (inactive) | > 31.6 µM (inactive) | 13.4 µM (inactive) | > 72.6 µM (inactive) | > 31.6 µM (inactive) |  |  |  | 
COC(=O)CCC(=O)Nc1cc(Cl)ccc1Cl | > 100 µM (inactive) | > 100 µM (inactive) | > 100 µM (inactive) | > 100 µM (inactive) | > 100 µM (inactive) | > 100 µM (inactive) |  |  | 
COP1(=O)Oc2ccccc2C(=O)C(C(F)(F)F)(C(F)(F)F)O1 (stereo not given) | > 100 µM (inactive) | > 100 µM (inactive) | 85.9 µM (inactive) |  | > 100 µM (inactive) |  |  |  | 
COP(=O)(OC)C(=O)N1N(c2ccc([N+](=O)[O-])cc2)C(=O)C(C)NC1(NNc1ccc([N+](=O)[O-])cc1)P(=O)(OC)OC (stereo not given) | > 100 µM (inactive) | > 100 µM (inactive) | > 100 µM (inactive) |  | > 100 µM (inactive) |  |  |  | 
Brc1ccc2c(c1)C1C(CO2)C(c2ccccc2)=NN1c1ccccc1 (stereo not given) | > 100 µM (inactive) | > 100 µM (inactive) | > 100 µM (inactive) | 60 µM (inactive) | > 100 µM (inactive) | > 100 µM (inactive) |  |  | 
COC(=O)C[C@](O)(CCC(C)(C)O)C(=O)O[C@@H]1C(OC)=C[C@]23CCCN2CCc2cc4c(cc2[C@H]13)OCO4 [HARRINGTONINE] | 0.107 µM (active) | 0.0843 µM (active) | < 0.01 µM (active) | 0.229 µM (active) | 0.121 µM (active) | 0.256 µM (active) |  |  | 
O=c1[nH]c2c(O)cccc2c2cc3c(c(O)c12)OCO3 [NARCIPRIMINE] | 20.3 µM (inactive) | 12.8 µM (inactive) | 15.6 µM (inactive) | 0.0524 µM (active) | 14.6 µM (inactive) | 21.3 µM (inactive) |  |  | 
CCOC(=O)NC(=O)c1cn(CCCCCOC(=O)NCCCCCCNC(=O)OCCCCCn2cc(C(=O)NC(=O)OCC)c(=O)[nH]c2=O)c(=O)[nH]c1=O | > 100 µM (inactive) | > 100 µM (inactive) |  | > 100 µM (inactive) | > 100 µM (inactive) | > 100 µM (inactive) |  |  | 
O=C(CC(=O)c1ccccc1NC1=Cc2ccccc2C(=O)C1=O)C(=O)NC1=C(Cl)C(=O)c2ccccc2C1=O | 0.225 µM (active) | 9.77 µM (inactive) | 2.49 µM (inactive) |  | 2.38 µM (inactive) | 2.16 µM (inactive) | 3.76 µM (inactive) | 10.9 µM (inactive) | 4.37 µM (inactive)
COC(=O)C(=O)C(C(=O)C(=O)Nc1ccc(Cl)cc1C)c1nc2ccc(C(=O)c3ccccc3)cc2nc1O (stereo not given) | > 100 µM (inactive) | > 100 µM (inactive) |  | > 100 µM (inactive) | 55.8 µM (inactive) | > 100 µM (inactive) |  |  | > 100 µM (inactive)
COC1OCC(O)C(NC(=O)N(C)N=O)C1O (stereo not given) | > 100 µM (inactive) | > 100 µM (inactive) | > 100 µM (inactive) | > 100 µM (inactive) | > 100 µM (inactive) | > 100 µM (inactive) |  |  | 
COc1nc(NC2OCC(OC(C)=O)C(OC(C)=O)C2OC(C)=O)c(/N=C(\C)C(C)=O)c(=O)n1C (stereo not given) |  | > 100 µM (inactive) | > 100 µM (inactive) | > 100 µM (inactive) | > 100 µM (inactive) | > 100 µM (inactive) |  |  | > 100 µM (inactive)
O=C1OCC2=C1C(c1ccc(Cl)cc1)c1cc3c(cc1O2)OCO3 (stereo not given) |  |  |  |  |  |  | 3.37 µM (inactive) | 4.3 µM (inactive) | 
Cc1nc2nn(Cc3ccccc3)cc2c(=O)o1 | > 100 µM (inactive) | > 100 µM (inactive) | 74.5 µM (inactive) |  | > 100 µM (inactive) | > 100 µM (inactive) |  |  | > 100 µM (inactive)
O=C(N/N=C/c1ccccc1O)N/N=C/c1ccccc1O | > 100 µM (inactive) | > 100 µM (inactive) | > 100 µM (inactive) | > 100 µM (inactive) | > 100 µM (inactive) | > 100 µM (inactive) |  |  | > 100 µM (inactive)
O=C1CNCCCN2CCN(CCCNCC(=O)Nc3ccc(cc3)S(=O)(=O)c3ccc(cc3)NC(=O)CNCCCN3CCN(CCCNCC(=O)Nc4ccc(cc4)S(=O)(=O)c4ccc(cc4)N1)CC3)CC2 |  |  |  |  |  |  | 30 µM (inactive) | 27.9 µM (inactive) | 
CC1c2c(Cl)nc3ccccc3c2Oc2c1c(Cl)nc1ccccc21 | > 100 µM (inactive) | > 100 µM (inactive) |  | 7.21 µM (inactive) | > 100 µM (inactive) | > 100 µM (inactive) |  |  | 
COC(=O)C(N)CCCC(N)C(=O)NC(C)C(=O)NC(CCC(=O)NCCNCCNc1c2ccccc2nc2cccc([N+](=O)[O-])c12)C(N)=O (stereo not given) |  |  |  |  |  |  | 16.3 µM (inactive) | 5.06 µM (inactive) | 
O=[N+]([O-])c1cc([As](Br)c2ccc(O)c([N+](=O)[O-])c2)ccc1O |  |  |  |  |  |  | 1.88 µM (inactive) | 0.204 µM (active) | 
COC(=O)[C@H](Cc1ccccc1)NC(=O)OCC1OC(n2cc(C)c(=O)[nH]c2=O)CC1N=[N+]=[N-] (stereo not given in full) |  |  |  |  |  |  | > 100 µM (inactive) | > 100 µM (inactive) | 
CCN(CC)CCNc1ccc2ncn3c4ccccc4c(=O)c1c23 | 3.63 µM (inactive) | 3.85 µM (inactive) |  | 10 µM (inactive) | 3.5 µM (inactive) | 3.03 µM (inactive) |  |  | 
O=C(N/C(=C\c1ccccc1Cl)c1nc2ccccc2[nH]1)c1ccccc1 | 33 µM (inactive) | 22.8 µM (inactive) | 23.8 µM (inactive) |  | 30.2 µM (inactive) | 45.6 µM (inactive) |  |  | 26.5 µM (inactive)
Oc1ccc(C(O)C2CCCCN2)cc1O (stereo not given) [RIMITEROL HYDROBROMIDE] |  |  |  |  |  |  | > 100 µM (inactive) | 23.8 µM (inactive) | 

Structure (SMILES) | GI50 [1] | GI50 [2] | GI50 [3] | GI50 [4] | GI50 [5] | GI50 [6] | GI50 [7] | GI50 [8] | GI50 [9]
CC1=C(/C=C/C(C)=C/C=C/C(C)=C/C=C/C=C(C)/C=C/C=C(C)/C=C/C=C(C)/C=C/C=C(\C)C(=O)O)C(C)(C)CCC1 |  | > 100 µM (inactive) |  | < 0.01 µM (active) | > 100 µM (inactive) | > 100 µM (inactive) |  |  | > 100 µM (inactive)
c1cc2nsnc2c2c[nH]cc12 |  |  |  |  |  |  | 49.7 µM (inactive) | 21 µM (inactive) | 
CC(=O)c1ccc(NC(=O)C(=O)CC(=O)c2sc(-n3nc(-c4ccccc4)cc3-c3ccccc3)nc2C)cc1 | > 100 µM (inactive) | > 100 µM (inactive) |  |  | > 100 µM (inactive) | > 100 µM (inactive) |  |  | > 100 µM (inactive)
COc1cc(/C=C/C(=O)OCCc2ccccc2)ccc1O |  |  |  |  |  |  | 14.7 µM (inactive) | 13.5 µM (inactive) | 
CCOC(=O)Cn1c(=O)c2cc(-c3ccccc3)cc3c(Cl)nc4c(OC)c(OC)cc1c4c32 |  |  |  |  |  |  | 18.5 µM (inactive) | 16 µM (inactive) | 
CCOC(=O)c1nnc2c(C(=O)OCC)c3ccccc3n2c1N |  |  |  |  |  |  | 13.7 µM (inactive) | 29.9 µM (inactive) | 
Cc1nc(C(N)=S)sc1C(=O)C/C(=N/N)C(=O)Nc1ccc(Cl)cc1 |  |  |  |  |  |  | > 100 µM (inactive) | 46.1 µM (inactive) | 
COc1ccccc1N1C(=O)CSC1c1cccc(Oc2ccccc2)c1 (stereo not given) |  |  |  |  |  |  | 17.1 µM (inactive) | 18.3 µM (inactive) | 
O=C(NO)c1ccc(O)c(O)c1 | > 100 µM (inactive) | > 100 µM (inactive) | > 100 µM (inactive) | 72.3 µM (inactive) | > 100 µM (inactive) | > 100 µM (inactive) |  |  | > 100 µM (inactive)
CS(=O)(=O)OCCN(CCOS(C)(=O)=O)c1ccc(C=O)cc1 | 12.6 µM (inactive) | 3.28 µM (inactive) | 1.97 µM (inactive) | 9.16 µM (inactive) | 18.5 µM (inactive) | 27.2 µM (inactive) | 13 µM (inactive) | 5.92 µM (inactive) | 
COC1CCC2C(NS(=O)(=O)c3ccc(C)cc3)CCCC2O1.Cc1ccc(S(=O)(=O)NC(C)(C)C=O)cc1 (stereo not given) | 12.7 µM (inactive) | 32.6 µM (inactive) |  |  | 20.3 µM (inactive) | > 34.5 µM (inactive) |  |  | 10.2 µM (inactive)
C=C1c2[nH]c3ccccc3c2C2C(CC)C1CCN2C (stereo not given) |  |  |  |  |  |  | > 100 µM (inactive) | > 100 µM (inactive) | 
CC(C)c1ccc2nc3ccc(C(=O)NCCN(C)C)cn3c(=O)c2c1 |  |  |  |  |  |  | 14.2 µM (inactive) | 19.1 µM (inactive) | 
CC(=O)OCC1OC(n2c(-c3ccc(C)cc3)cc(-c3ccccc3)c(C#N)c2=O)C(OC(C)=O)C(OC(C)=O)C1OC(C)=O (stereo not given) | > 100 µM (inactive) | > 100 µM (inactive) | 86.9 µM (inactive) |  | > 100 µM (inactive) | > 100 µM (inactive) |  |  | > 100 µM (inactive)
CN1Nc2ccccc2CC1=O | > 100 µM (inactive) | > 100 µM (inactive) | > 100 µM (inactive) | > 100 µM (inactive) | > 100 µM (inactive) | > 100 µM (inactive) |  |  | 
CC(=O)c1c(CO[N+](=O)[O-])[n+]([O-])c2ccccc2[n+]1[O-] |  |  |  |  |  |  | > 100 µM (inactive) | 61.4 µM (inactive) | 
CCSCCC(N)C(=O)O (stereo not given) |  |  |  |  |  |  | > 100 µM (inactive) | > 100 µM (inactive) | 
O=C1c2ccccc2C(=O)C2C1C1C(=O)c3ccccc3C(=O)C21 (stereo not given) | 45.4 µM (inactive) | > 100 µM (inactive) |  | 8.69 µM (inactive) | 15.2 µM (inactive) |  |  |  | > 100 µM (inactive)
C[C@]12CC[C@H](OC3CCCCO3)CC1=CC[C@@H]1C2CC[C@]2(C)/C(=N/O)CCC12 (stereo not given in full) |  | 12.6 µM (inactive) | 40.6 µM (inactive) | 16 µM (inactive) | 48.2 µM (inactive) | 20.7 µM (inactive) |  |  | 
Cc1ccc(-c2cc(=O)c3cc(C)c(C)c(C(=O)O)c3o2)cc1C | > 100 µM (inactive) | > 100 µM (inactive) |  | > 100 µM (inactive) | > 100 µM (inactive) | > 100 µM (inactive) |  |  | > 100 µM (inactive)
COC(=O)[C@]1(C)C(OC)=CC(=O)C2C1[C@H]1CCC[C@@H]21 (stereo not given in full) | > 100 µM (inactive) | > 100 µM (inactive) | > 100 µM (inactive) | > 100 µM (inactive) | > 100 µM (inactive) | > 100 µM (inactive) |  |  | 
CN1C(=O)CC2(C)c3cc(C=O)ccc3N(C)C12 (stereo not given) | > 100 µM (inactive) | > 100 µM (inactive) | > 100 µM (inactive) | > 100 µM (inactive) | > 100 µM (inactive) | > 100 µM (inactive) |  |  | > 100 µM (inactive)
